According to patent US8710064B2, “2-aryl-4-quinazolinones and their pharmaceutical compositions” (China Medical University, priority 2011, dated 2014):

What was measured:
[1] = system: glioma cell lines C6, RT2, U87, U251, U373 and T98G; test: MTS cell viability assay, glioma cell lines; format: cell-based, rat and human
Experimental: (§1) The human glioma cell lines U87, U251, T98G, U373, and rat glioma cell line RT2 provided by Dr. Michael Hsiao (Genomics Research Center, Academia Sinica, Taiwan) were cultured in Dulbecco's Modified Eagle medium (DMEM) (Caisson) supplemented with 10% fetal bovine serum (FBS) (Sigma-Aldrich), 2 mM L-glutamine (Caisson), 100 U/ml penicillin, and 100 μg/ml streptomycin (Caisson). The rat glioma C6 cell line provided by Dr. Shun-Fen Tzeng (National Cheng Kung University, Taiwan) was cultured in DMEM/F12 (Caisson) supplemented with 10% fetal bovine serum, 2 mM L-glutamine, 100 U/ml penicillin, and 100 μg/ml streptomycin. The human normal glia cell line SVGP12, kindly provided by Dr. Michael Hsiao, was cultured in Minimum Essential Medium (MEM) (Invitrogen) supplemented with 10% fetal bovine serum, 2 mM L-glutamine, 100 U/ml penicillin, and […]. Primary glia cells were prepared by surgery. […]
(§2) Cell proliferation was determined by MTS (tetrazolium compound, 3-(4,5-dimethylthiazol-2-yl)-5-(3-carboxymethoxyphenyl)-2-(4-sulfophenyl)-2H-tetrazolium) assay (Promega). […] The absorbance of soluble formazan was measured at 490 nm with microplate reader (Molecular device). The cell viability was determined by the percentage of the absorption relative to untreated control. […]
The effects of MJ-66 on other glioma cell lines were further examined. […] Cell viability was assessed by MTS assay (mean±SEM, n=3). […]

HSC-3 = test: trypan blue exclusion assay, HSC-3 cells; format: cell-based, human; conditions: HSC-3 human squamous carcinoma; trypan blue exclusion assay
Experimental: The HSC-3 (human oral squamous cell carcinoma) were cultured in 1:1 Dulbecco's Modified Eagle's Medium (DMEM) and Ham's Nutrient Mixture F-12, containing 10% FBS (HyClone, Logan, Utah, USA), 100 U/ml penicillin, 100 μg/ml streptomycin (Gibco BRL, Rockville, Md., USA) and 2 mM glutamine (Merck, Darmstadt, Germany).
Cell viability was also determined by trypan-blue exclusion assay. Cells were seeded in 6-well plates (2×10^4/well) for trypan blue exclusion assay, and incubated for 24 hours at 37° C. Culture medium containing test compound or DMSO (0.006%) was added to each well, and cells were incubated at 37° C. At indicated time points (0, 24, 48, 72 and 96 hr), cells were suspended with 0.05% trypsin-EDTA, and stained with trypan-blue dye (0.4%) (Sigma). The cell viability was evaluated by the percentage of death relative to the total cell, and cell growth curve was determined by number of live cells relative to the total number of cells.
The anti-proliferation effects of Compounds 17-31 on M21, CH27, H460, Hep3B and HSC-3 cells were evaluated by the trypan blue exclusion assay.

C6 rat glioma = test: MTS cell viability assay, C6 glioma cells; format: cell-based; conditions: 48 hours, mean±SEM, n=3
Experimental: as §1, with “surgery. Cerebral cortices without meninges were dissected from postnatal (P0-P2) Sprague-Dawley (SD, NCKU Laboratory Animal Center) rats and dissociated in 0.05% trypsin-EDTA (Biowest) at 37° C. for 10 min. Culture medium was added and pipetted for several times, and supernatant was removed after a centrifugation at 1,000 rpm for 5 minutes.” for “surgery.”
as §2
To investigate the effect of 2-aryl-4-quinazolinone in accordance with the present invention on cell proliferation, glioma cell lines were treated with MJ-66, MJ-68, or MJ-78. […] The cell viability of each group was analyzed by MTS assay (mean±SEM, n=3).

HT29-5FUR cells = test: MTT cell viability assay, HT29-5FUR cells; format: cell-based, human; conditions: 25, 50, 100 and 200 nM for 24 and 48 hours
Experimental: HT29-5FUR cell line (human colon adenocarcinoma) provided by Dr. Jai-Sing Yang (China Medical University, Taiwan) was cultured in RPMI-1640 medium (Invitrogen, Carlsbad, Calif., USA) supplemented with 10% fetal bovine serum, 2 mM L-glutamine, 100 U/ml penicillin, and 100 μg/ml streptomycin.
Cells (1×10^4 cells/well) in 96-well plates were exposed to test MJ-66, and 0.1% DMSO in media served as a vehicle control. After 24 and 48 hr-incubations, […] MTT (0.5 mg/mL) solution was added to each well, the plate was incubated at 37° C. for 4 hours. Then, […] 0.04 N HCl in isopropanol was added and the absorbance at 570 nm was measured for each well. The cell survival rate was expressed as % of control. All results were performed from three independent experiments.
The growth inhibition effects of MJ-66 on HT29-5FUR cells were investigated. For cell viability assay, HT29-5FUR cells were cultured and treated with 0, 25, 50, 100 and 200 nM MJ-66 and the percentages of viable cells were detected by MTT assay described in “General materials and methods”.

SMILES: O=c1[nH]c(-c2cccc3ccccc23)nc2ccc(N3CCCC3)cc12 [Compound 23, 6-(Pyrrolidin-1-yl)-2-(naphthalen-1-yl)quinazolin-4-one]
- survival rates of glioma cell lines ([1]; 0.00625-1 μM, 24, 48 and 72 hr, MTS assay): decreased in a time- and concentration-dependent manner
- IC50 ([1]; Glioma cell, in vitro, read-out: IC50, growth of glioma cells): ~60 nM
- IC50 (HSC-3): 41 nM
- IC50 (C6 rat glioma): 56 ± 9 nM
- cell number of HT29-5FUR relative to control (HT29-5FUR cells): dose-dependent decreases
